{"source": "paper PMC12317361", "about": "“Pharmacological Inhibition of c‐Jun N‐Terminal Kinase Activity Exacerbates Liver Damage in Schistosoma mansoni Infected Mice” (Liver International, 2025)", "target": "SmJNK (S. mansoni c-Jun N-terminal kinase) (Schistosoma mansoni, UniProt A0A3Q0KT26)", "sequence (A0A3Q0KT26 entry or part of it)": "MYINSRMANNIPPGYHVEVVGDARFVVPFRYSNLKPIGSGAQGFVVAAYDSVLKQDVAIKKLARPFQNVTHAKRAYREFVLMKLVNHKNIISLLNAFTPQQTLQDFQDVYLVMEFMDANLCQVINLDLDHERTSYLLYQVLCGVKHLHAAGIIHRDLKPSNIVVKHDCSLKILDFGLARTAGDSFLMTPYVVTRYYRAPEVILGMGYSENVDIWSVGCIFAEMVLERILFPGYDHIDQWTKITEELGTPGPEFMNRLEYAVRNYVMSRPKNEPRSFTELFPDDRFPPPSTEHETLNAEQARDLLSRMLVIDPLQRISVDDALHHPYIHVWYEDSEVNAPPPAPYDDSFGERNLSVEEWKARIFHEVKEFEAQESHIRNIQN", "test": "cellular thermal shift assay (CETSA), isothermal dose-response fingerprint in SmJNK-expressing Sf21 cells", "format": "cell-based", "note": "pKd: −log10 of the molar value.", "data": [{"smiles": "Oc1c2ccccc2c2c3c(cccc13)N=N2", "note": "[SP600125]", "values": [{"measurement": "pKd", "value": 6.19}]}]}
